Laboratory results as given in the supplement of paper PMC8633005.

Experiments:
Test in all cases: drug sensitivity score (DSS) (DSS (unitless, 0-50 scale)); higher = more sensitive (stronger viability inhibition); extreme values may be limits of the assay
Details in all cases: 72 h; culture: 2D
FM-MEL-3 = test system: FM-MEL-3
Method in brief: (§1)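 Drug sensitivity scores, modified area-under-curve measures, were derived from dose-response curves fitted in the in-house Breeze software. The curves came from melanoma cell lines and patient-derived melanoma cultures (1000–1500 cells per well) grown in 2D in 384-well plates holding a 527-compound oncology library. Each compound was dissolved in DMSO or water and tested at five concentrations across a 10,000-fold range. Viability was read by CellTiter-Glo luminescence after 72 h at 37 °C.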

FM-MEL-2 = test system: FM-MEL-2
Method in brief: as §1

Bowes = test system: Bowes
Method in brief: as §1

WM165 = test system: WM165
Method in brief: as §1

WM852 = test system: WM852
Method in brief: as §1

FM-MEL-6 = test system: FM-MEL-6
Method in brief: as §1

SK-MEL-2 = test system: SK-MEL-2
Method in brief: as §1

SK-MEL-28 = test system: SK-MEL-28
Method in brief: as §1

| SMILES | drug sensitivity score (FM-MEL-3) | drug sensitivity score (FM-MEL-2) | drug sensitivity score (Bowes) | drug sensitivity score (WM165) | drug sensitivity score (WM852) | drug sensitivity score (FM-MEL-6) | drug sensitivity score (SK-MEL-2) | drug sensitivity score (SK-MEL-28) |
| --- | --- | --- | --- | --- | --- | --- | --- | --- |
| O=C(Nc1cccnc1)N1CCC(Cc2cccc(Oc3ccc(C(F)(F)F)cn3)c2)CC1 [PF-3845] | 0.1 | 0 | 3.8 | 1 | 4 | 0 | 0 | 0 |
| COc1ccccc1S(=O)(=O)Nc1ccc2c(c1)CN(C)C(=O)N2 [PFI-1] | 6 | 4.7 | 4 | 6.2 | 0.1 | 4.1 | 0.1 | 2.8 |
| CN1CCN(c2cc(C(=O)Nc3ccc4c(c3)-c3c(c(C(N)=O)nn3-c3ccc(F)cc3)CC4)c(Cl)cn2)CC1 [PHA 408] | 1.1 | 5.7 | 0.5 | 3.4 | 5.3 | 5.2 | 4.2 | 0.1 |
| O=C(Nc1cc(Cl)cc2c1[nH]c1cnccc12)c1cccnc1 [PS-1145] | 0.7 | 0 | 0 | 0 | 1.3 | 0 | 0 | 0 |
| COc1cc(Br)c(Nc2nc(-c3c(C)nc4ncccn34)cs2)c(Br)c1 [PTC-209] | 11.2 | 5.1 | 13.7 | 12.4 | 7.6 | 5 | 4.2 | 4.6 |
| CC(=O)O[C@H]1C(=O)[C@@]2(C)[C@H]([C@H](OC(=O)c3ccccc3)[C@]3(O)C[C@H](OC(=O)[C@H](O)[C@@H](NC(=O)c4ccccc4)c4ccccc4)C(C)=C1C3(C)C)[C@]1(OC(C)=O)CO[C@@H]1C[C@@H]2O [Paclitaxel] | 11.9 | 5.3 | 23.3 | 22.2 | 20.5 | 13.7 | 16.5 | 11.5 |
| C1=N/C2=N/c3ccc(OCCN4CCCC4)c(c3)COC/C=C/COCc3cccc(c3)C(=C1)N2 [Pacritinib] | 9.5 | 9.8 | 16.8 | 9.8 | 9.1 | 7.7 | 5.4 | 9.8 |
| CC(=O)c1c(C)c2cnc(Nc3ccc(N4CCNCC4)cn3)nc2n(C2CCCC2)c1=O [Palbociclib] | 2.3 | 3.8 | 4.6 | 5.8 | 3.1 | 4.2 | 0.7 | 6.3 |
| COc1ccc(COc2cc3oc(=O)c4cc(C(C)O)ccc4c3cc2OC)cc1 (stereo not drawn) [Palomid-529] | 0.7 | 0.1 | 0 | 0 | 0 | 0.1 | 0 | 0 |
| Cc1[nH]c2ccccc2c1CCNCc1ccc(/C=C/C(=O)NO)cc1 [Panobinostat] | 14.9 | 16.2 | 10.1 | 19.6 | 9.3 | 12.1 | 16.8 | 12.9 |
| Cc1ccc(Nc2nccc(N(C)c3ccc4c(C)n(C)nc4c3)n2)cc1S(N)(=O)=O [Pazopanib] | 0 | 0 | 2.8 | 0 | 2.1 | 0.4 | 0 | 0 |
| Nc1nc2[nH]cc(CCc3ccc(C(=O)N[C@@H](CCC(=O)O)C(=O)O)cc3)c2c(=O)[nH]1 [Pemetrexed] | 0 | 0.6 | 24.5 | 7.4 | 0 | 0.1 | 0 | 6.6 |
| OC[C@H]1O[C@@H](n2cnc3c2N=CNC[C@H]3O)C[C@@H]1O [Pentostatin] | 1.8 | 0 | 0 | 0 | 0 | 0 | 0 | 0 |
| CCCCCCCCCCCCCCCCCCOP(=O)([O-])OC1CC[N+](C)(C)CC1 [Perifosine] | 0.4 | 0.2 | 0 | 0 | 0 | 0 | 0 | 0 |
| NS(=O)(=O)OC[C@@H]1C[C@@H](n2ccc3c(N[C@H]4CCc5ccccc54)ncnc32)C[C@@H]1O [Pevonedistat] | 12.4 | 6.2 | 10.9 | 20 | 11.7 | 7.8 | 11.7 | 7 |
| FC(F)(F)c1ccc(CNc2ccc(Cc3c[nH]c4ncc(Cl)cc34)cn2)cn1 [Pexidartinib] | 3 | 1 | 0.2 | 2.4 | 4.5 | 1.1 | 0 | 0.4 |
| CS(=O)(=O)N1CCN(Cc2cc3nc(-c4cccc5[nH]ncc45)nc(N4CCOCC4)c3s2)CC1 [Pictilisib] | 8.8 | 12.7 | 8.4 | 8.4 | 6.5 | 7.4 | 3.2 | 9.6 |
| CC[C@@H]1C(=O)OC[C@@H]1Cc1cncn1C [Pilocarpine] | 1.5 | 0 | 0 | 0 | 0 | 0 | 0 | 0 |
| CC(C)N(C[C@H]1O[C@@H](n2cnc3c(N)ncnc32)[C@H](O)[C@@H]1O)[C@H]1C[C@@H](CCc2nc3cc(C(C)(C)C)ccc3[nH]2)C1 [Pinometostat] | 0 | 0 | 0 | 0 | 0 | 0 | 0 | 0 |
| Cc1ccc(=O)n(-c2ccccc2)c1 [Pirfenidone] | 0 | 0 | 0 | 0 | 0 | 0 | 0 | 0 |
| NCCNc1ccc(NCCN)c2c1C(=O)c1ccncc1C2=O [Pixantrone] | 0 | 0 | 4.8 | 0.7 | 1.3 | 0.8 | 0 | 0 |

| SMILES | drug sensitivity score (FM-MEL-3) | drug sensitivity score (FM-MEL-2) | drug sensitivity score (Bowes) | drug sensitivity score (WM165) | drug sensitivity score (WM852) | drug sensitivity score (FM-MEL-6) | drug sensitivity score (SK-MEL-2) | drug sensitivity score (SK-MEL-28) |
| --- | --- | --- | --- | --- | --- | --- | --- | --- |
| c1cc(CN2CCCNCCNCCCNCC2)ccc1CN1CCCNCCNCCCNCC1 [Plerixafor] | 0 | 0 | 0 | 0 | 0 | 0 | 0 | 0 |
| CO[C@H](C(=O)[C@@H](O)[C@@H](C)O)[C@@H]1Cc2cc3cc(O[C@H]4C[C@@H](O[C@@H]5C[C@@H](O)[C@H](O)[C@@H](C)O5)[C@H](O)[C@@H](C)O4)c(C)c(O)c3c(O)c2C(=O)[C@H]1O[C@H]1C[C@@H](O[C@@H]2C[C@@H](O)[C@@H](O[C@@H]3C[C@](C)(O)[C@H](O)[C@@H](C)O3)[C@@H](C)O2)[C@H](O)[C@@H](C)O1 [Plicamycin] | 21.3 | 12.7 | 26.4 | 15.7 | 3.2 | 7.4 | 16.8 | 8.6 |
| Nc1cccc2c1C(=O)N(C1CCC(=O)NC1=O)C2=O (stereo not drawn) [Pomalidomide] | 0 | 0 | 0 | 0 | 0 | 0 | 0 | 0 |
| Cc1ccc(C(=O)Nc2ccc(CN3CCN(C)CC3)c(C(F)(F)F)c2)cc1C#Cc1cnc2cccnn12 [Ponatinib] | 9.1 | 7.8 | 9.1 | 8.3 | 6.2 | 4.5 | 4.4 | 4.9 |
| C=CC(=O)N1CCC(Oc2cc3c(Nc4ccc(Cl)c(Cl)c4F)ncnc3cc2OC)CC1 [Poziotinib] | 0 | 0 | 2.2 | 0 | 0 | 0 | 0 | 0 |
| CCCCc1nc2cc(/C=C/C(=O)NO)ccc2n1CCN(CC)CC [Pracinostat] | 13.3 | 14.5 | 9.2 | 16.8 | 9.1 | 14 | 14 | 12.9 |
| CC[C@H](C)C(=O)O[C@H]1C[C@H](O)C=C2C=C[C@H](C)[C@H](CC[C@@H](O)C[C@@H](O)CC(=O)O)[C@H]21 [Pravastatin] | 0 | 0.8 | 0 | 0 | 0 | 0 | 0 | 0 |
| C[C@]12C=CC(=O)C=C1CC[C@@H]1[C@@H]2[C@@H](O)C[C@@]2(C)[C@H]1CC[C@]2(O)C(=O)CO [Prednisolone] | 2.8 | 0.3 | 0 | 0 | 0 | 0 | 0 | 0 |
| Cn1cc(CNCC2CCN(c3ncc(C(=O)NO)cn3)CC2)c2ccccc21 [Quisinostat] | 11.3 | 13.4 | 9 | 16.3 | 5.7 | 10.6 | 13.5 | 10.7 |
| Nc1cc(F)ccc1NC(=O)/C=C/c1cnn(C/C=C/c2ccccc2)c1 [RGFP966] | 0.5 | 0 | 1.6 | 0 | 0 | 1.9 | 0 | 0 |
| COC(=O)c1ccc([C@H]2c3[nH]c4ccccc4c3C[C@H](C(=O)OC)N2C(=O)CCl)cc1 [RSL3] | 0 | 0 | 0 | 0 | 0 | 0 | 0 | 0 |
| Cc1cnc(NC(=O)Nc2cc(Br)c(C)cc2OC[C@@H]2CNCCO2)cn1 [Rabusertib] | 1.5 | 0 | 0.9 | 0 | 2.4 | 0 | 0 | 0 |
| Cc1cn(-c2cc(NC(=O)c3ccc(C)c(Nc4nccc(-c5cnccn5)n4)c3)cc(C(F)(F)F)c2)cn1 [Radotinib] | 8.6 | 5 | 0 | 0 | 0 | 2.6 | 0 | 0 |
| CC(C)(C)Cn1c(N)nc2ccc(-c3[nH]c(C(C)(C)C)nc3-c3ccc(F)cc3)nc21 [Ralimetinib] | 6.1 | 5.4 | 0 | 2.9 | 1 | 0 | 0 | 2 |
| O=C(c1ccc(OCCN2CCCCC2)cc1)c1c(-c2ccc(O)cc2)sc2cc(O)ccc12 [Raloxifene] | 4.7 | 2.1 | 0 | 2 | 1.9 | 1.8 | 0 | 1.3 |
| Cc1nc(=O)c2cc(CN(C)c3ccc(C(=O)N[C@@H](CCC(=O)O)C(=O)O)s3)ccc2[nH]1 [Raltitrexed] | 0 | 0 | 23.9 | 8.4 | 0 | 0 | 0 | 3.9 |
| Cn1nccc1Nc1nccc(-c2ccn([C@H](CO)c3ccc(Cl)c(F)c3)c(=O)c2)n1 [Ravoxertinib] | 12.4 | 11.9 | 1.7 | 12 | 1.9 | 5.6 | 5.2 | 13.1 |
| CNC(=O)c1cc(Oc2ccc(NC(=O)Nc3ccc(Cl)c(C(F)(F)F)c3)c(F)c2)ccn1 [Regorafenib] | 12.9 | 8.5 | 6.7 | 5.3 | 1.8 | 3.7 | 2.8 | 4.6 |
| CCOC(=O)C1=CCCC[C@H]1S(=O)(=O)Nc1ccc(F)cc1Cl [Resatorvid] | 0 | 0 | 0 | 0 | 0 | 0 | 0 | 0 |
| CCOCc1nc2c(N)nc3ccccc3c2n1CC(C)(C)O [Resiquimod] | 0 | 0 | 0.1 | 0 | 0.4 | 0.2 | 0 | 0 |
